Structures can show the parent of a compound that is named as a salt.
What was measured:
[1] = Rat plasma stability (incubation in rat plasma, LC-MS/MS); format: in vitro ADME; conditions: 100 ng/mL, 37° C.
Protocol: The rat plasma stability of Example 1 was tested by incubation of the compound in rat plasma at 100 ng/mL followed by LC-MS/MS bioanalysis to measure remaining parent compound relative to the time zero condition (no incubation). Concentrations of 1 remaining at 1 and 4 hr after incubation at 37° C. were 19% and 0%, indicating 1 was very unstable under these conditions. Since 1 was designed as a prodrug, plasma instability is a desirable attribute.

beta-Tryptase = molecular target: T1, beta-Tryptase (Homo sapiens, UniProt Q15661); assay: beta-Tryptase inhibition, chromogenic enzyme assay (S2366 substrate); format: biochemical; conditions: activity of parent drug against beta-Tryptase; Ki calculated from IC50
T1 construct: host or cells: yeast cells
T1 sequence (Q15661 31-275): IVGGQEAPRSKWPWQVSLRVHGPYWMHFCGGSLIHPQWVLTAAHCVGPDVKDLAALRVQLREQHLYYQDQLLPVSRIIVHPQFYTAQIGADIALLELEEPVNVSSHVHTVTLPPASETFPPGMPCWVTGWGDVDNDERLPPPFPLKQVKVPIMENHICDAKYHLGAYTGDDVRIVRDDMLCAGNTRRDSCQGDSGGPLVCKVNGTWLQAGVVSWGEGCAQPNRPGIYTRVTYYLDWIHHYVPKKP
Description: Inhibition of this catalytic activity may be measured by the in vitro enzyme assay and the cellular assay.
Tryptase inhibition activity is confirmed using either isolated human lung tryptase or recombinant human beta tryptase expressed in yeast cells. Essentially equivalent results are obtained using isolated native enzyme or the expressed enzyme. The assay procedure employs a 96 well microplate (Costar 3590) using L-pyroglutamyl-L-prolyl-L-arginine-para-nitroanilide (S2366: Quadratech) as substrate (essentially as described by McEuen et. al. Biochem Pharm, 1996, 52, pages 331-340). Assays are performed at room temperature using 0.5 mM substrate (2×Km) and the microplate is read on a microplate reader (Beckman Biomek Plate reader) at 405 nm wavelength.
Materials and Methods for Tryptase Primary Screen (Chromogenic Assay)
S2366 (Stock solutions of 2.5 mM).
Purified recombinant beta Tryptase Stocks of 310 μg/mL. […]
The protocol is essentially the same as above except that the compound is added in duplicates at the following final concentrations: 0.01, 0.03, 0.1, 0.3, 1, 3, 10 μM (All dilutions carried out manually). […] From the IC50 value, the Ki can be calculated using the following formula: Ki=IC50/(1+[Substrate]/Km).

COCCn1cc(C(=O)N2CCC(c3cc(CNC(=O)CNC(=O)[C@@H](N)C(C)C)ccc3F)CC2)c2c(C(=O)N3CCOCC3)cccc21.Cl [Example 1, (S)-2-Amino-N-[(4-fluoro-3-{1-[1-(2-methoxy-ethyl)-4-(morpholine-4-carbonyl)-1H-indole-3-carbonyl]-piperidin-4-yl}-benzylcarbamoyl)-methyl]-3-methyl-butyramide hydrochloride]
Rat plasma stability (in words) [1]: very unstable | Concentration remaining relative to time zero ([1]; 1 hr incubation): 19% | Concentration remaining relative to time zero ([1]; 4 hr incubation): 0%

COCCn1cc(C(=O)N2CCC(c3cc(CN)ccc3F)CC2)c2c(C(=O)N3CCOCC3)cccc21 [Parent of 1, [4-(5-Aminomethyl-2-fluoro-phenyl)-piperidin-1-yl]-[1-(2-methoxy-ethyl)-4-(morpholine-4-carbonyl)-1H-indol-3-yl]-methanone hydrochloride]
Ki (beta-Tryptase): 29 nM

COCCn1cc(C(=O)N2CCC(c3cc(CN)ccc3F)CC2)c2c(OC(F)(F)F)ccc(F)c21 [Parent of 4, [4-(5-aminomethyl-2-fluoro-phenyl)-piperidin-1-yl]-[7-fluoro-1-(2-methoxy-ethyl)-4-trifluoromethoxy-1H-indol-3-yl]-methanone hydrochloride]
Ki (beta-Tryptase): 38 nM

— patent publication US8710080B2, “Prodrugs of [4 [4-(5-Aminomethyl-2-fluoro-phenyl)-piperidin-1-yl]-(1H-pyrrolo-pyridin-yl)-methanones and synthesis thereof” (Sanofi, priority 2009, dated 2014)
